In experiment [1] the target is T1, androgen receptor (adenovirus AdEasy+rAR in L929 cells) (Rattus norvegicus, UniProt P15207).
T1 construct: expressed in transfected cells
T1 sequence (P15207 1-902): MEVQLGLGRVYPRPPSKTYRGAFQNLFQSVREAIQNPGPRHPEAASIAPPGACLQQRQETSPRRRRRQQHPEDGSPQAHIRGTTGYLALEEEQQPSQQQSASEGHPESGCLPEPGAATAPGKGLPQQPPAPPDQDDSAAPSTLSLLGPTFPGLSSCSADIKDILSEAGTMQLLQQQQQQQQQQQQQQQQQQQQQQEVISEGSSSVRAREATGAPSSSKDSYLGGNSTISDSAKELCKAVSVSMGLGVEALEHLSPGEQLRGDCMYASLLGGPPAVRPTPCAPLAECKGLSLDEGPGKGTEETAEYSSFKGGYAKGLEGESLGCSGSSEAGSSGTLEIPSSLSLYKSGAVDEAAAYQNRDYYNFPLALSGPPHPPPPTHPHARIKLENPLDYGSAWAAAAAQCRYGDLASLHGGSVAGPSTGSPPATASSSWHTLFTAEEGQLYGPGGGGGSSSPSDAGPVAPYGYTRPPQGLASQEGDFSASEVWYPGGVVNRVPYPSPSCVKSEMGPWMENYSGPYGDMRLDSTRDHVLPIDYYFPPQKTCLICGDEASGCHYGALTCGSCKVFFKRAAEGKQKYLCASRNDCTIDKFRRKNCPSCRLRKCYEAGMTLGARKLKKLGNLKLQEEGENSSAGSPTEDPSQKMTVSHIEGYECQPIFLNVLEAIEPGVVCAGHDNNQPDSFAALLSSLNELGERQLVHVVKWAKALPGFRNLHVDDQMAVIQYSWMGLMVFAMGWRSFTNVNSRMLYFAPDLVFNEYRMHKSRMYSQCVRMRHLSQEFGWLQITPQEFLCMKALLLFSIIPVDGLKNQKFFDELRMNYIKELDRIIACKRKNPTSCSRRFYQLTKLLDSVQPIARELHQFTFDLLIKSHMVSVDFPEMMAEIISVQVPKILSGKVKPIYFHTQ
As to the kind of experiment: L929 Androgen Receptor Functional Assay, Adenovirus Transduction. It counts as cell-based. To be noted: L929 agonist testing; 3000 nM. In outline: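 Luminescent reporter readout after 48 h at 37 °C: rat AR delivered by adenovirus (AdEasy+rAR, moi 1:500) into L929 cells grown without phenol red in charcoal-treated serum. Antagonist wells also received R1881 (2.5× dilution at 2.5 nM).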

In experiment [2] the test system is testosterone-enhanced ventral prostate and seminal vesicle weights in castrated male Sprague Dawley rats. As to the kind of experiment: Ventral Prostate and Seminal Vesicle Weight In Vivo Assay. The arrangement: species or system rat. To be noted: immature castrated rats; once daily for five days, usually orally at 40 mg/kg, with testosterone propionate 2 mg/kg s.c. In outline: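 Immature (~50 g) castrated Sprague Dawley rats dosed once daily for five days with compound (usually oral, 40 mg/kg, cyclodextrin or methylcellulose vehicle) plus testosterone propionate 2 mg/kg s.c. Wet ventral prostate and seminal vesicle weights taken on day six; activity judged by prostate weight or body-weight-adjusted % inhibition.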

Experiment [3] addresses T2, androgen receptor (rat ventral prostate cytosol) (Rattus norvegicus, UniProt P15207).
T2 construct: from tissue; host or cells: ventral prostate of castrated male Sprague Dawley or Wistar rats, cytosol
T2 sequence (P15207 1-902): T1 sequence (P15207 1-902)
Put plainly: Androgen Receptor Binding Using Rat Ventral Prostate Cytosol. How it is done:
(§1) The assay was run on a 96 well plate with each well filled with a total reaction volume 150 μL, of a solution containing 5 pmol androgen receptor LBD (Panvera) or 30 μL of freshly prepared rat cytosol, 0.5 nM [^3H] […] (TED buffer contains 10 mM Tris.HCl pH 7.4, 1 mM sodium molybdate, 1.5 mM EDTA, 1 mM DTT and 10% (v/v) glycerol.)
(§2) On day one, the solution containing receptor, tracer and TED buffer was distributed into a 96 well plate. Diluted test compound or control vehicle was then added to individual wells and the plate incubated at 4° C. overnight.
(§3) On day two, to each well was then added 20 μL human γ-globulin (ICN 823102), prepared at 25 mg/ml in TE pH 8.0, and 55 μL 40% polyethylene glycol 8000 (JT Baker U222-08), prepared in TE pH 8.0. The plate was incubated at 4° C. for 60 minutes. During incubation, the harvester was rinsed with 10% PEG 8000, prepared in TE pH 8.0, and a GF/C Unifilter-96 was pre-wet with 10% PEG. The binding reaction was filtered, the retentate was washed three times with 10% PEG and dried under vacuum for a couple of minutes, then dried at 50° C. for 5 min and the plate was bottom sealed. Next, 25 μL of Microscint-20 (Packard) was added to the filter wells and the plate was top sealed. The plate wells were then counted on a TopCount (Packard).
Rat Prostate Cytosol Preparation:
Male Sprague Dawley or Wistar rats (Charles River, 200-300 g) were used for each preparation. The day before preparing the cytosol, the rats were castrated using standard surgical procedures.
The rats were euthanized by carbon dioxide asphyxiation. The rat prostates were quickly removed and placed on ice in pre-chilled, pre-weighed 50 mL plastic tubes. No more than five prostates were placed into one tube. The tubes were then weighed and the prostate tissue wet weights calculated.
To the chilled prostate tissue was then added […] of chilled homogenization buffer. The homogenization buffer was freshly prepared by mixing 10 mM Tris.HCl, pH 7.4, 1 mM sodium molybdate, 1.5 mM EDTA, 1 mM dithiothreitol, 10% (v/v) glycerol and 1% protease inhibitor cocktail (Sigma P 8340).
The prostate tissue was homogenized in a cold room using a pre-chilled Polytron PT3000 homogenizer (Brinkmann). Homogenization was performed at a speed setting of 20, three times for 10 sec bursts. The tubes containing the prostate tissue was kept on ice while homogenizing. The homogenate was allowed to rest on ice for 20 sec between bursts.
The homogenate was then placed into pre-chilled 3 mL polycarbonate ultracentrifuge tubes and centrifuged in the TLA-100 rotor of a TL-100 ultracentrifuge for 12 min at 100,000 rpm at 4° C. The resulting supernatant was stored in 1 mL aliquots at −80° C. until needed.
Binding to the androgen receptor was determined according to the protocol described in Example 86 using the above prepared rat cytosol.
% Inhibition was determined by testing dilutions of the test compound (usually duplicates of 10 μM) in the binding assay. Counts per well were measured and percents of inhibition determined. […] Counts per well were measured and IC50s determined by linear regression.

Experiment [4] concerns the target T3, androgen receptor LBD (Panvera) (Rattus norvegicus, UniProt P15207).
T3 construct: 5 pmol androgen receptor LBD (Panvera); purchased Panvera
T3 sequence (P15207 651-882 limits assumed): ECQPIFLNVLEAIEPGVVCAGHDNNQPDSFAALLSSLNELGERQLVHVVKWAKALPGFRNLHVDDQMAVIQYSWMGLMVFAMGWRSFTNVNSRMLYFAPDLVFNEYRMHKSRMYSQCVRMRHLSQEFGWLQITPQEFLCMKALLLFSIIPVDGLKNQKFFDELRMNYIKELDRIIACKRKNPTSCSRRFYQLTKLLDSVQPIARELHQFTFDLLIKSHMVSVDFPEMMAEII
Put plainly: Androgen Receptor Filtration Binding Assay (PANVERA). The procedure:
as §1, §2, §3
Counts per well were measured and IC50s determined by linear regression.

[5] abbreviates: rat cytosol, concentration 3000 nM.
[6] abbreviates: rat cytosol, concentration 1000 nM.
Where [7] appears, read: Androgen Receptor Binding (Panvera), 0.5 nM [3H] R1881 tracer.
Setting [8] is: rat cytosol, concentration 1000 nM, 1 µM.

Like-named read-outs stand apart in the source and are kept apart here.

Turning to `CN(C)c1ccc(S(=O)(=O)CC(C)(O)c2cc3cc(Cl)c(C(F)(F)F)cc3[nH]2)cc1` (racemic) [compound 126], the “% Activity” value in experiment [1] is −5%. The “active / inactive (inhibition of testosterone-enhanced prostate weight)” value in experiment [2] is “inactive”. Besides, in experiment [3] (setting [5]), the % Inhibition (usually the relative decrease from the control value, in per cent) is listed as −30%.
Taken in the same sequence, the figures for `CC(O)(CS(=O)(=O)Cc1ccccc1)c1cc2cc([N+](=O)[O-])c(C(F)(F)F)cc2[nH]1` (racemic) [compound 162] were 2%, “inactive” and 0.69%.
Consider `CC(O)(c1cc2cc([N+](=O)[O-])c(C(F)(F)F)cc2[nH]1)S(=O)(=O)c1ccc(Cl)c(Cl)c1` (racemic) [compound 255], for which the “% Inhibition” value in experiment [3] (setting [6]) is 26%.
With `CC(O)(SC1CCCCC1)c1cc2cc([N+](=O)[O-])c(C(F)(F)F)cc2[nH]1` (racemic) [compound 256], the IC50 (as a rule, the midpoint of a concentration-inhibition curve) in experiment [4] (setting [7]) worked out at 2.65 µM.
Regarding `CC(O)(SC1CCCCC1)c1cc2cc(C#N)c(C(F)(F)F)cc2[nH]1` (racemic) [compound 257], in experiment [4] (setting [7]), the IC50 turned out to be 5.15 µM.
On the same count and under the same terms, the value for `CC(O)(Sc1ccc(Cl)cc1)c1cc2cc([N+](=O)[O-])c(C(F)(F)F)cc2[nH]1` (racemic) [compound 259] was 0.915 µM.
For the compound `CC(O)(Sc1ccc(N)cc1)c1cc2cc([N+](=O)[O-])c(C(F)(F)F)cc2[nH]1` (racemic) [compound 266], the “% Activity” value in experiment [1] is −4%. Further, the “active / inactive (inhibition of testosterone-enhanced prostate weight)” value in experiment [2] was “inactive”. Besides, in experiment [3] (setting [5]), the “% Inhibition” value is on record as 12.4%.
Taken in the same sequence, the figures for `CC(C)SC(C)(CO)c1cc2cc([N+](=O)[O-])c(C(F)(F)F)cc2[nH]1` (racemic) [compound 268] were 9%, “inactive” and −3.3%.
Turning to `OC1(c2cc3cc(Cl)c(C(F)(F)F)cc3[nH]2)CCN(Cc2ccccc2)CC1` [Compound #22], the IC50 in experiment [4] (setting [7]) is greater than 9.6 µM.
As for `CC(C)(C)c1ccc(CN2CCC(O)(c3cc4cc(Cl)c(C(F)(F)F)cc4[nH]3)CC2)cc1` [Compound #32], in experiment [3] (setting [6]), the inhibition (as a rule, the drop in the measured response relative to a control, in per cent) at 1 µM was 34%. The IC50 in experiment [3] (rat cytosol, read-out: IC50) was determined as 43000 nM.
Taken in the same sequence, the figures for `OC1(c2cc3cc(Cl)c(C(F)(F)F)cc3[nH]2)CCN(Cc2ccc(C(F)(F)F)cc2)CC1` [Compound #33] were 11% and 29000 nM.
For the compound `Cc1ccc(CN2CCC(O)(c3cc4cc([N+](=O)[O-])c(C(F)(F)F)cc4[nH]3)CC2)cc1` [Compound #42], the “% Inhibition” value in experiment [3] (1 µM) turned out to be 23%. Moreover, in experiment [3] (rat cytosol, read-out: IC50), the IC50 amounted to 7100 nM.
As for `CS(=O)(=O)n1c(C2(O)CCN(C(=O)c3ccc(Cl)cc3)CC2)cc2cc(Cl)c(C(F)(F)F)cc21` [compound 24], in experiment [3] (setting [6]), the “% Inhibition” value turned out to be 2%.
Consider `Cc1ccc(CN2CCC(O)(c3cc4cc([N+](=O)[O-])c(C(F)(F)F)cc4[nH]3)CC2)cc1` [compound 27], for which, in experiment [3] (rat cytosol, read-out: IC50), the IC50 is 3100 nM.
`OC1(c2cc3cc(Cl)c(C(F)(F)F)cc3[nH]2)CCN(Cc2ccc(F)cc2)CC1` [compound 28]: the inhibition at 1 µM in experiment [3] (setting [6]) is -3.4%. Moreover, the IC50 in experiment [3] (rat cytosol, read-out: IC50) came out at 7000 nM.
The matching figures for `COc1cccc(CN2CCC(O)(c3cc4cc(Cl)c(C(F)(F)F)cc4[nH]3)CC2)c1` [compound 29]: -1.8% and 4700 nM.
Taken in the same sequence, the figures for `Cc1ccc(CN2CCC(O)(c3cc4cc(Cl)c(C(F)(F)F)cc4[nH]3)CC2)cc1` [compound 30] were -7.7% and 4100 nM.
The matching figures for `OC1(c2cc3cc(Cl)c(C(F)(F)F)cc3[nH]2)CCN(Cc2ccc(Cl)cc2)CC1` [compound 31]: 20% and 4050 nM.
Regarding `CS(=O)(=O)c1ccc(CN2CCC(O)(c3cc4cc(Cl)c(C(F)(F)F)cc4[nH]3)CC2)cc1` [compound 34], the inhibition at 1 µM in experiment [3] (setting [6]) is 18%. The IC50 in experiment [3] (rat cytosol, read-out: IC50) was found to be 5700 nM.
Taken in the same sequence, the figures for `COc1ccc(CN2CCC(O)(c3cc4cc(Cl)c(C(F)(F)F)cc4[nH]3)CC2)cc1` [compound 35] were -19% and 4200 nM.
As to `OC1(c2cc3cc(Cl)c(C(F)(F)F)cc3[nH]2)CCN(Cc2ccc(Cl)c(Cl)c2)CC1` [compound 36], the IC50 in experiment [3] (IC50 (nM)) is greater than 100000 nM. In experiment [3] (setting [6]), the inhibition at 1 µM was -34%.
`COc1cccc(CN2CCC(O)(c3cc4cc([N+](=O)[O-])c(C(F)(F)F)cc4[nH]3)CC2)c1` [compound 38]: the “% Inhibition” value in experiment [3] (setting [8]) amounted to 16%. Moreover, the IC50 in experiment [3] (rat cytosol, read-out: IC50) was found to be 8800 nM.
For the compound `COc1cccc(CN2CCC(O)(c3cc4cc([N+](=O)[O-])c(C(F)(F)F)cc4[nH]3)CC2)c1` [compound 39], in experiment [3] (setting [8]), the “% Inhibition” value is 6%. For the same compound, the IC50 in experiment [3] (rat cytosol, read-out: IC50) was greater than 6100 nM.
On to `O=[N+]([O-])c1cc2cc(C3(O)CCN(Cc4ccc(Cl)cc4)CC3)[nH]c2cc1C(F)(F)F` [compound 40], for which the “% Inhibition” value in experiment [3] (setting [8]) is −2.5%. Also, in experiment [3] (rat cytosol, read-out: IC50), the IC50 was 3800 nM.
Turning to `O=[N+]([O-])c1cc2cc(C3(O)CCN(Cc4ccc(Cl)cc4)CC3)[nH]c2cc1C(F)(F)F` [compound 41], in experiment [3] (setting [8]), the “% Inhibition” value came out at 20%. Besides, the IC50 in experiment [3] (rat cytosol, read-out: IC50) came to 2300 nM.
On to `O=[N+]([O-])c1cc2cc(C3(O)CCN(Cc4ccc(Cl)c(Cl)c4)CC3)[nH]c2cc1C(F)(F)F` [compound 43], for which, in experiment [3] (setting [6]), the inhibition at 1 µM was 5.8%. Also, the IC50 in experiment [3] (rat cytosol, read-out: IC50) turned out to be 9100 nM.
Regarding `CC(O)(COC(=O)c1ccccc1Cl)c1cc2cc([N+](=O)[O-])c(C(F)(F)F)cc2[nH]1` (centres unmarked) [compound 54], the half-maximal inhibitory concentration (IC50) in experiment [4] was determined as 0.465 µM.

Values taken from patent publication US8394971B2, “Indole derivatives as selective androgen receptor modulators (SARMS)” (Janssen Pharmaceutica N.V., priority 2004, dated 2013).
